According to ChEMBL document CHEMBL4610043, “Design, synthesis and identification of novel, orally bioavailable non-covalent Nrf2 activators” (Bioorg Med Chem Lett, 2020):
Values after ≈ are worked out from the molar mass of the structure shown.

Columns and labels:
[1] = Efflux ratio of apparent permeability in MDCK-MDR1 cells; format: ADME, cell-based, Canis lupus familiaris; settings: dog
[2] = Clearance in rat at 1 mg/kg, iv; format: ADME, organism-based; settings: in vivo
[3] = Protein binding in rat plasma assessed as unbound fraction at 2 uM by rapid equilibrium dialysis method; format: ADME, cell-free
[4] = Protein binding in human plasma assessed as unbound fraction at 2 uM by rapid equilibrium dialysis method; format: ADME, cell-free
[5] = AUC in rat at 1 mg/kg, iv; format: ADME, organism-based; settings: in vivo
[6] = Tmax in rat at 5 mg/kg, po; format: ADME, organism-based; settings: in vivo
[7] = Protein binding in mouse brain assessed as unbound fraction; format: ADME, tissue-based
[8] = Protein binding in mouse plasma assessed as unbound fraction at 2 uM by rapid equilibrium dialysis method; format: ADME, cell-free
[9] = Cmax in C57BL/6 mouse at 10 mg/kg, po; format: ADME, organism-based; parameters: dose 10 mg/kg, route oral; settings: in vivo
[10] = Aqueous solubility of compound at pH 6.8 by shake flask method; format: physicochemical; settings: buffer
[11] = Half life in rat at 1 mg/kg, iv; format: ADME, organism-based; settings: in vivo
[12] = AUC in rat at 5 mg/kg, po; format: ADME, organism-based; settings: in vivo
[13] = Oral bioavailability in rat at 5 mg/kg; format: ADME, organism-based; settings: in vivo
[14] = Distribution coefficient, log D of compound at pH 7.4 by shake flask method; format: physicochemical; settings: octanol/water
[15] = Cmax in rat at 5 mg/kg, po; format: ADME, organism-based; parameters: dose 5 mg/kg, route oral; settings: in vivo
[16] = Volume of distribution at steady state in rat at 1 mg/kg, iv; format: ADME, organism-based; settings: in vivo, read-out: Vdss
[17] = fCmax In C57BL/6 mouse at 10 mg/kg, po; format: ADME, organism-based; settings: in vivo
[18] = Unbound brain to plasma concentration ratio in mouse; format: ADME; settings: brain and plasma, read-out: K(p,uu,brain)

`CCn1nnc2c(C)c([C@H](c3ccc4c(c3)CN(C(=O)c3c(C)c(C)cc(C)c3C)CC4)C(C)(C)C(=O)O)ccc21` gave an efflux ratio [1] of 104.

With `CCn1nnc2c(C)c([C@@H](CC(=O)O)c3ccc4c(c3)CN(C(=O)c3c(C)c(C)cc(C)c3C)CC4)ccc21` the clearance [2] was 6.16 mL/min/kg, the fraction unbound at 2 µM [3] was 0.00568 and the fraction unbound at 2 µM [4] was 0.00708. For the same compound, the AUC [5] was 2510 ng·h/mL, the Tmax [6] was 0.92 h and the fraction unbound [7] was 0.0211. It also gave a fraction unbound at 2 µM [8] of 0.00505, a Cmax [9] of 6.7 µM and a solubility thermodynamic [10] of 29.5 µg/mL (≈ 56.2 µM). For the same compound, the half-life [11] was 3.77 h, the AUC [12] was 2720 ng·h/mL and the bioavailability [13] was 20%. The logD [14] was 1.39, the Cmax [15] was 958 ng/mL and the Vd [16] was 0.707 L/kg. It also gave a fCmax [17] of 33 nM and a Kp uu [18] of 0.04.
